Measurements as given in PMC6271966, “Synthesis and Biological Activity of Some Bile Acid-Based Camptothecin Analogues” (Molecules, 2014).

Tests used:
[1] = tested on: human hepatoma cell line (SMMC-7721); test: MTT cytotoxicity assay, SMMC-7721; format: cell-based; settings: SMMC-7721, 72 h, read-out: In Vitro Cytotoxicity (IC50, µM) SMMC7721
Protocol: (§1) The cytotoxicity of these compounds against three cancer cell lines was assayed using a conventional microtitre plate tetrazolium cytotoxicity assay. The human hepatoma cancer cell line (SMMC-7721), the colon cancer cell line (HCT-116), and the human breast cancer cell line (MCF-7) were provided by The Chinese Academy of Sciences cell bank. These cells were plated at a density of 1 × 10^5 cells/mL and incubated in a 96-well late for 24 h (37 °C, 5% CO2). The cells were then exposed to various concentrations of the compounds (0.0032, 0.016, 0.08, 0.4, 2, 10, and 50 µM/mL) continuously for 72 h. After this incubation, MTT solution (20 μL, 5 mg/mL) was added to each well and incubated for a further 4 h before removing the media. Formazan crystals were then dissolved by the addition of DMSO (100 μL per well). After mixing, the absorbance was read at 540 nm on a microplate reader. These assays were performed in three independent experiments. Wells containing no drugs, or CPT, were used as negative and positive controls, respectively. The IC50 values, defined as the concentration of compounds that produced a 50% decrease in surviving cells, were calculated using the Logit-method.

[2] = tested on: human colon cancer cell line (HCT-116); test: MTT cytotoxicity assay, HCT-116; format: cell-based; settings: HCT-116, 72 h, read-out: In Vitro Cytotoxicity (IC50, µM) HCT-116
Protocol: as §1

[3] = tested on: human breast cancer cell line (MCF-7); test: MTT cytotoxicity assay, MCF-7; format: cell-based; settings: MCF7, 72 h, read-out: In Vitro Cytotoxicity (IC50, µM) MCF-7
Protocol: as §1

[4] = Lactone stability in rat blood serum (HPLC); format: in vitro ADME; settings: rat, serum
Protocol: Compounds E2, F2, G2, and H2 were dissolved in DMSO (100 μL, 4 mM/L) and incubated in rat blood serum (4 mL) at 37 °C. Aliquots were taken at different time points (0, 2, 4, 6, 8, 10, 12, and 24 h) and examined by HPLC, using CPT as the reference.

[5] = Body weight and surviving mice in the H22 in vivo study; parameters: species or system mouse; settings: for Mice Number End of Study: 4 mice at start
Protocol: Anti-tumour activity screens of CPT-bile acid analogues were conducted in KM mice with H22 mouse liver tumours. […] These groups (n = 4) were treated with either vehicle (control), CPT, or the CPT-bile acid analogues. Mice received i.p. treatments once every two days.

H22 mouse liver tumours = test: In vivo anti-tumour activity, H22 mouse liver tumour model; settings: H22 KM mice, i.p. every two days
Protocol: Anti-tumour activity screens of CPT-bile acid analogues were conducted in KM mice with H22 mouse liver tumours. Briefly, female mice weighing 18–22 g were subcutaneously inoculated at the right flank with a tumour cell suspension (1 × 10^6 cells) in 0.2 mL of phosphate-buffered saline. The mice were divided into subgroups 24 h after inoculation. These groups (n = 4) were treated with either vehicle (control), CPT, or the CPT-bile acid analogues. Mice received i.p. treatments once every two days. When the tumour weight of the control group reached 1.0–1.5 g, the mice were killed and the TIR (%) calculated.

| SMILES | IC50 [1] [µM] | IC50 [2] [µM] | IC50 [3] [µM] | melting point [°C] | other results |
| --- | --- | --- | --- | --- | --- |
| CC[C@@]1(OC(=O)CNC(=O)CCC(C)C2CCC3C4C(C[C@H](O)[C@]23C)[C@@]2(C)CC[C@@H](O)CC2C[C@H]4O)C(=O)OCc2c1cc1n(c2=O)Cc2cc3ccccc3nc2-1 (stereo partly drawn) [Compound E1, Camptothecin-20 (S)-O-glycine Ester-[N-(3′α,7′α,12′α-trihydroxy-24′-carbonyl-5′β-cholane)]] | 2.23 | 2.9 | 18.3 | 200 to 203 | – |
| CC[C@@]1(OC(=O)CNC(=O)CCC(C)C2CCC3C4C(CC[C@]23C)[C@@]2(C)CC[C@@H](O)CC2C[C@@H]4O)C(=O)OCc2c1cc1n(c2=O)Cc2cc3ccccc3nc2-1 (stereo partly drawn) [Compound E3, Camptothecin-20 (S)-O-glycine Ester-[N-(3′α,7′β-dihydroxy-24′-carbonyl-5′β-cholane)]] | 2.18 | 2.4 | 61 | 209 to 211 | – |
| CC[C@@]1(OC(=O)CNC(=O)CCC(C)C2CCC3C4C(CC[C@]23C)[C@@]2(C)CC[C@@H](O)CC2C[C@H]4O)C(=O)OCc2c1cc1n(c2=O)Cc2cc3ccccc3nc2-1 (stereo partly drawn) [Compound E4, Camptothecin-20 (S)-O-glycine Ester-[N-(3′α,7′α-dihydroxy-24′-carbonyl-5′β-cholane)]] | 2.25 | 2.88 | 20 | 202 to 203 | – |
| CC[C@@]1(OC(=O)C(CCC(=O)OC)NC(=O)CCC(C)C2CCC3C4C(C[C@H](O)[C@]23C)[C@@]2(C)CC[C@@H](O)CC2C[C@H]4O)C(=O)OCc2c1cc1n(c2=O)Cc2cc3ccccc3nc2-1 (stereo partly drawn) [Compound F1, Camptothecin-20 (S)-O-(D-Glu (OMe)) Ester-[N-(3′α,7′α,12′α-trihydroxy-24′-carbonyl-5′β-cholane)]] | 55.7 | 70 | 40 | 195 to 196 | – |
| CC[C@@]1(OC(=O)C(CCC(=O)OC)NC(=O)CCC(C)C2CCC3C4CCC5C[C@H](O)CC[C@]5(C)C4C[C@H](O)[C@]23C)C(=O)OCc2c1cc1n(c2=O)Cc2cc3ccccc3nc2-1 (stereo partly drawn) [Compound F2, Camptothecin-20 (S)-O-(D-Glu(OMe))Ester-[N-(3′α,12′α-dihydroxy-24′-carbonyl-5′β-cholane)]] | 2.25 | 36 | 11.8 | 199 to 200 | half-life at 97.6 µM [4]: > 24 h |
| CC[C@@]1(OC(=O)C(CCC(=O)OC)NC(=O)CCC(C)C2CCC3C4C(CC[C@]23C)[C@@]2(C)CC[C@@H](O)CC2C[C@@H]4O)C(=O)OCc2c1cc1n(c2=O)Cc2cc3ccccc3nc2-1 (stereo partly drawn) [Compound F3, Camptothecin-20 (S)-O-(D-Glu(OMe)) Ester-[N-(3′α,7′β-dihydroxy-24′-carbonyl-5′β-cholane)]] | 12.2 | 13 | 46.3 | 187 to 189 | – |
| CC[C@@]1(OC(=O)C(CCC(=O)OC)NC(=O)CCC(C)C2CCC3C4C(CC[C@]23C)[C@@]2(C)CC[C@@H](O)CC2C[C@H]4O)C(=O)OCc2c1cc1n(c2=O)Cc2cc3ccccc3nc2-1 (stereo partly drawn) [Compound F4, Camptothecin-20 (S)-O-(D-Glu(OMe)) Ester-[N-(3′α 7′α-dihydroxy-24′-carbonyl-5′β-cholane)]] | 2.23 | 20 | 120 | 182 to 185 | – |
| CC[C@@]1(OC(=O)COC(=O)CCC(C)C2CCC3C4C(C[C@H](O)[C@]23C)[C@@]2(C)CC[C@@H](O)CC2C[C@H]4O)C(=O)OCc2c1cc1n(c2=O)Cc2cc3ccccc3nc2-1 (stereo partly drawn) [Compound G1, Camptothecin-20 (S)-O-acetate-[N-(3′α,7′α,12′α-trihydroxy-24′-carbonyl-5′β-cholane)]] | 0.71 | 4 | 10.9 | 230 to 233 | – |
| CC[C@@]1(OC(=O)COC(=O)CCC(C)C2CCC3C4CCC5C[C@H](O)CC[C@]5(C)C4C[C@H](O)[C@]23C)C(=O)OCc2c1cc1n(c2=O)Cc2cc3ccccc3nc2-1 (stereo partly drawn) [Compound G2, Camptothecin-20 (S)-O-acetate-[N-(3′α,12′α-dihydroxy-24′-carbonyl-5′β-cholane)]] | 1.24 | 2.05 | 4 | 221 to 224 | half-life at 97.6 µM [4]: > 24 h |
| CC[C@@]1(OC(=O)COC(=O)CCC(C)C2CCC3C4C(CC[C@]23C)[C@@]2(C)CC[C@@H](O)CC2C[C@@H]4O)C(=O)OCc2c1cc1n(c2=O)Cc2cc3ccccc3nc2-1 (stereo partly drawn) [Compound G3, Camptothecin-20 (S)-O-acetate-[N-(3′α,7′β-dihydroxy-24′-carbonyl-5′β-cholane)]] | 6.84 | 12.1 | 62 | 229 to 230 | – |
| CC[C@@]1(OC(=O)COC(=O)CCC(C)C2CCC3C4C(CC[C@]23C)[C@@]2(C)CC[C@@H](O)CC2C[C@H]4O)C(=O)OCc2c1cc1n(c2=O)Cc2cc3ccccc3nc2-1 (stereo partly drawn) [Compound G4, Camptothecin-20 (S)-O-acetate-[N-(3′α,7′α-dihydroxy-24′-carbonyl-5′β-cholane)]] | 0.14 | 36 | 70 | 228 to 229 | Mice Number End of Study ([5]; dose 19.21 × 3 µmol/kg i.p.): 4; Body Weight (g) End of Study ([5]; dose 19.21 × 3 µmol/kg i.p., start of study 19.1 g): 19.4 g; Mice Number End of Study ([5]; dose 38.42 × 3 µmol/kg i.p.): 4; Body Weight (g) End of Study ([5]; dose 38.42 × 3 µmol/kg i.p., start of study 21.0 g): 21.6 g; Mice Number End of Study ([5]; dose 57.63 × 3 µmol/kg i.p.): 4; Body Weight (g) End of Study ([5]; dose 57.63 × 3 µmol/kg i.p., start of study 19.8 g): 22.1 g; TIR (%) (H22 mouse liver tumours; dose 19.21 × 3 µmol/kg): 35.45%; TIR (%) (H22 mouse liver tumours; dose 38.42 × 3 µmol/kg): 64.55%; TIR (%) (H22 mouse liver tumours; dose 57.63 × 3 µmol/kg): 71.12% |
| CC[C@@]1(O)C(=O)OCc2c1cc1n(c2=O)Cc2cc3cc(OCCCOC(=O)CCC(C)C4CCC5C6C(C[C@H](O)C45)C4CC[C@@H](O)CC4C[C@H]6O)ccc3nc2-1 (stereo partly drawn) [Compound H1, 10-O-(3-O-(3′α,7′α,12′α-Trihydroxy-24′-carbonyl-5′β-cholan)-propyl)-20(S)-camptothecin] | 3.2 | 7.4 | 3 | – | – |
| CC[C@@]1(O)C(=O)OCc2c1cc1n(c2=O)Cc2cc3cc(OCCCOC(=O)CCC(C)C4CCC5C4CCC4C6CC[C@@H](O)CC6C[C@H](O)C45)ccc3nc2-1 (stereo partly drawn) [Compound H3, 10-O-(3-O-(3′α,7′β-Dihydroxy-24′-carbonyl-5′β-cholan)-propyl)-20(S)-camptothecin] | 3.34 | 0.8 | 2.8 | – | – |
| CC[C@@]1(O)C(=O)OCc2c1cc1n(c2=O)Cc2cc3cc(OCCCOC(=O)CCC(C)C4CCC5C4CCC4C6CC[C@@H](O)CC6C[C@@H](O)C45)ccc3nc2-1 (stereo partly drawn) [Compound H4, 10-O-(3-O-(3′α,7′α-Dihydroxy-24′-carbonyl-5′β-cholan)-propyl)-20(S)-camptothecin] | 2.18 | 1.4 | 30 | – | – |
